Experimental data taken from ChEMBL document CHEMBL1201862, “PubChem BioAssay data set” (2004).
The source made the active and inactive calls. Rule as the data show it: actives have a measured EC50 and inactives only a lower limit.

Columns and labels:
[1] = inhibitors of intracellular T. cruzi replication, confirmation, NIH3T3 host cells, beta-gal luminescence (AID 2044); format: functional, cell-based;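 also: intracellular parasites grown in NIH/3T3 mouse fibroblasts as host cells; luminescent beta-galactosidase reporter signal from transgenic T. cruzi replicating inside host cells; inhibitors lower the luminescence signal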
[2] = cytotoxicity toward NIH3T3 fibroblasts, dose response, counter-screen, cell-based, ATP luminescence, mouse fibroblasts (AID 2010); format: functional;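 also: cells exposed to compound for about 90 hours before reading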
[3] = system: Streptococcus sp. 'group A'; test: growth inhibition of control SK(-) GAS strain, dose response, counter-screen for streptokinase expression inhibitor project, luminescence, kanamycin, BacTiterGlo, confirmation (AID 1900); format: functional, organism-based
Streptokinase A = target: T1, Streptokinase A (Streptococcus pyogenes serotype M1, UniProt P10520); test: S. pyogenes streptokinase expression inhibitors, potency, dose response, plasminogen activation absorbance, OD405 (AID 1914); format: functional, Streptococcus pyogenes M1 GAS;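 also: secreted streptokinase activity via plasminogen activation per viability signal from cell pellet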
T1 sequence (P10520 whole entry): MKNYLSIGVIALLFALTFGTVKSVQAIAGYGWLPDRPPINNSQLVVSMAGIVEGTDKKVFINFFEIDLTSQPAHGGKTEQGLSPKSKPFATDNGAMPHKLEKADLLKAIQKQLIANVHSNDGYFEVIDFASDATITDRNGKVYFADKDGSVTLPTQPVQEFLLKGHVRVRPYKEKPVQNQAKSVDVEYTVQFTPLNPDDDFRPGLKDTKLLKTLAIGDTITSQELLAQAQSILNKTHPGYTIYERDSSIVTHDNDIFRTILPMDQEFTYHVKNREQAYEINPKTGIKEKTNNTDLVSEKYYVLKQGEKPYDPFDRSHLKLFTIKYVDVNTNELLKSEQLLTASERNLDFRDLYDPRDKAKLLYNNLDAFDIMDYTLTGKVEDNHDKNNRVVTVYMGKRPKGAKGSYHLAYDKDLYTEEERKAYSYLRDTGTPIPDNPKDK

Streptococcus = test: Group A Streptococcus viability loss, dose response, counter-screen for streptokinase expression inhibitor project, luminescence, BacTiterGlo (AID 1915); format: functional, organism-based;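 also: potency for reduction of bacterial viability or growth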

Row | Structure (SMILES) | EC50 [1] | EC50 [2] | EC50 [3] | EC50 (Streptokinase A) | EC50 (Streptococcus)
1 | COc1cc(-c2cc(C(=O)Nc3ccc(S(=O)(=O)NCc4ccco4)cc3)c3ccccc3n2)cc(OC)c1OC | 1.62 µM (active) | > 60 µM (not active) |  |  | 
2 | CC1=C(C#N)c2nc(N)c(C#N)c(C)c2/C1=C\c1ccc(C)cc1 |  |  | 4.38 µM (active) | 12.3 µM (active) | > 150 µM (not active)
3 | CC(=O)N1CCc2cc(S(=O)(=O)N3CCc4ccccc43)ccc21 |  |  | > 150 µM (not active) | > 150 µM (not active) | > 150 µM (not active)
4 | O=C(CN1CCCCCCC1)N/N=C/c1ccc([N+](=O)[O-])o1 | 1.34 µM (active) | > 60 µM (not active) |  |  | 
5 | C[C@@H](C[C@@H](O)[C@H](O)C(C)(C)O)[C@@H]1CC[C@]2(C)C3=CC[C@H]4C(C)(C)C(=O)CC[C@]4(C)[C@H]3CC[C@@]12C |  |  | 3.13 µM (active) | > 150 µM (not active) | 5.03 µM (active)
6 | Cc1ccc(S(=O)(=O)N(CC(=O)Nc2cccc(N(C)S(C)(=O)=O)c2)c2ccc(Cl)c(Cl)c2)cc1 | 2.14 µM (active) | > 60 µM (not active) |  |  | 
7 | CN(C)c1nc(N)ncc1-c1ccc(Oc2ccccc2)cc1 | 0.231 µM (active) | > 60 µM (not active) |  |  | 
8 | Cc1ccc(C(=O)/C=C(\O)C(=O)NC23CC4CC(CC(C4)C2)C3)cc1 |  |  | 4.07 µM (active) | > 150 µM (not active) | > 150 µM (not active)
9 | COc1ccc(CCNC(=O)c2cccc(NS(=O)(=O)c3ccccc3F)c2)cc1OC |  |  | > 150 µM (not active) | > 150 µM (not active) | > 150 µM (not active)
10 | O=C(CSc1ccc(Cl)cc1)NC1=NN(c2ccccc2)C(=O)C1 |  |  | 7.47 µM (active) | 9.33 µM (inconclusive) | 7.17 µM (active)
11 | Cc1cc(Nc2ccccc2)nn1C(=O)c1ccc(Br)cc1 |  |  | 20.6 µM (active) | > 150 µM (not active) | > 150 µM (not active)
12 | C=CCn1c(=O)c(C(=O)NCc2ccccc2)c(O)c2ccccc21 |  |  | 20.4 µM (active) | 42.2 µM (active) | > 150 µM (not active)
13 | COc1ccc(COc2cc(-c3cccc(OC)c3)nc3ccc(NC(C)=O)cc23)cc1 | 0.728 µM (active) | > 60 µM (not active) |  |  | 
14 | O=C(CCN1C(=O)/C(=C/c2ccccc2)SC1=S)NCCCN1CCOCC1 | 2.62 µM (active) | 8.78 µM (active) |  |  | 
15 | CCN(CC)S(=O)(=O)c1cccc(C(=O)/C=C2/N(C)c3ccccc3C2(C)C)c1 | 0.739 µM (active) | > 60 µM (inconclusive) |  |  | 
16 | O=C(CN(c1ccc(Cl)c(C(F)(F)F)c1)S(=O)(=O)c1ccccc1)N/N=C/c1cccc2c1OCCO2 |  |  | 8.38 µM (active) | 32.9 µM (active) | 95.3 µM (active)
17 | c1ccc2c(c1)C(=NC1CCCCC1)N=C2NC1CCCCC1 | 1.27 µM (active) | > 60 µM (not active) |  |  | 
18 | CCN(CC)S(=O)(=O)c1ccc(N2CCOCC2)c(NC(=O)C2CSC3(C)CCC(=O)N23)c1 (stereo unspecified) |  |  | > 150 µM (not active) | > 150 µM (not active) | > 150 µM (not active)
19 | O=C1c2ccccc2CCC12N=NCC2c1ccc(Br)cc1 (stereo unspecified) |  |  | 22.6 µM (active) | 23.7 µM (active) | > 150 µM (not active)
20 | C=CCc1cc(/C=C2/NC(=O)N(CC)C2=O)cc(OCC)c1OCc1ccc(C(=O)O)cc1 |  |  | 12.5 µM (active) | > 150 µM (not active) | 105 µM (active)
21 | COc1ccc(C(=O)C2CCCN(Cc3c(C)[nH]c4ccccc34)C2)c(OC)c1 (stereo unspecified) | 0.299 µM (active) | > 60 µM (not active) |  |  | 
22 | Cc1ccc(OCCn2cnc3cc([N+](=O)[O-])ccc3c2=O)cc1 | 0.366 µM (active) | > 30 µM (not active) |  |  | 
